Assay results published in US12590118B2, “Salt and crystal form of steroid derivative regulator” (Shanghai Hansoh Biomedical Co., Ltd., priority 2019, dated 2026).

Key:
GABA-A receptor = experiment: 35S-TBPS binding assay (GABAA receptor binding ability assay); parameters: species or system Sprague-Dawley rat; conditions: rat cerebral cortex cell membrane, 5 μM GABA, 2 nM 35S-TBPS; read-out: IC50 on inhibiting the TBPS binding activity, 35S-TBPS bindng assay
How it was run: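 Male Sprague-Dawley rat cerebral cortex membranes in PBS, preincubated with compound (1% DMSO, 8-point 3-fold series) 5 min at 25° C, then GABA 5 μM final 5 min, then 2 nM 35S-TBPS for 20 h at 4° C. Bound radioactivity filtered on PEI-treated GF/C and counted. % inhibition relative to DMSO and 10 μM P026-2 controls; IC50 from 4-parameter fit.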

ICR mice = experiment: Forced swimming model in mice; type: in vivo; conditions: for Mean (immobility, %): floating time/240 s; for Mean (immobility, s): latter four minutes of 6 min swim
Protocol: The antidepressant effect of the compound was evaluated by the forced swimming model in mice.
Compounds of Examples 1 to 3, Example 9, Example 40, Example 41, Examples 48 to 52, Example 90 and Example 98 of the present invention, prepared by the applicant.
Male ICR mice (25-35 g) were adapted in the experiment environment for 3 days before the forced swimming test.
According to the experiment design, the mice were randomly grouped on the day before the experiment according to body weight, with 12 mice in each group. Before the test, the compounds of each example were administered intragastrically according to the Tmax thereof in the brain in mice pharmacokinetic experiment.
Respectively: • 1) Model group (0.5% CMC-Na-1% Tween 80 solution, p.o., 10 mL/kg); • 2) Compounds of Examples 1 to 3, Example 40, Example 41, Examples 48 to 51, Example 90 and Example 98 (10 mg/kg, p.o., 10 mL/kg); Example 9 and Example 52 (5 mg/kg, p.o., 5 mL/kg).
When being administered, the compounds of each example were suspended in 0.5% CMC-Na+1% Tween 80 solution to the desired concentration.
0.5-1 hour after administration, ICR mice were placed in a forced swimming device (transparent glass drum (water depth 18 cm, water temperature 25-26° C.), one mouse per tank) and forced to swim for 6 minutes. The forced swimming device recorded the floating time of the ICR mice during the entire 6 minutes, and the data of the latter four minutes were used for data analysis. The mice were taken out immediately after the swimming experiment, wiped dry and put back in their original cages.
Note: The criterion for determining the immobility time is that the mouse stops struggling in water and floats, and there are only slight limb movements to keep the head floating on the water.
3.4 Data Analysis Floating time percentage=100*floating time/240 s.

[1] = target: T1, human GABAA receptor α1, β2 and γ2 subunit (HEK293T cell line) (Homo sapiens, UniProt P14867+P47870); experiment: Positive regulatory effect on GABAA receptor, manual patch clamp; type: cell-based; conditions: whole-cell current, 1 μM GABA
T1 construct: expressed in transfected cells
Protocol: The objective of this test example is to determine the positive regulatory effect of the compound on GABAA receptor by the electrophysiological manual patch clamp method.
Manual patch clamp system HEKA EPC10 USB signal amplifier and digital conversion system (purchased from HEKA Electronics, Germany), centrifuge (Eppendorf, etc.), carbon dioxide incubator (purchased from Thermo, etc.), biological safety cabinet (Thermo, etc.), pipette (purchased from Eppendorf, etc.).
The cells were grown in a culture dish with DMEM medium (purchased from Invitrogen), and cultured in an incubator at 37° C. and 5% CO2. Before the electrophysiological experiment, the cells were transferred to a round glass slide placed in the culture dish, and grown in the same culture medium and under the same culture condition as above. The density of cells on each round glass slide should meet the requirement that most cells were independent and individual.
Each test compound was diluted in gradient with DMSO to obtain a stock solution, which was then diluted with extracellular fluid by 1,000-fold to obtain the final test concentration. The final concentration of DMSO in the compound solution with each concentration was 0.1%. The experiment used the manual patch clamp system HEKA EPC10 USB signal amplifier and digital conversion system for whole cell current recording. The round glass slide with HEK293T GABAA cells grown on the surface was taken out of the culture dish, and placed in the electrophysiological recording tank under the inverted microscope. The recording tank was continuously perfused with extracellular fluid. During the experiment, the whole-cell current recording technology was used to record the chloride current of the GABAA channel. 1 μM GABA was used to activate the chloride current of the GABAA channel of each cell as an initial control. 1 μM GABA acted on the cell through the drug perfusion system to induce the chloride current of the GABAA channel, the action time was about 3 to 5 seconds, and the current value was used as the initial control value. The test concentration of compound was perfused and incubated for 2 to 5 minutes. […] GABA solution (mixed with the test concentration of compound) was given to the cells to observe the enhancement effect of the test compound on the current induced by 1 μM GABA. When the cell state was stable, the test compound acted on the same cell from low to high concentration to record the enhancement effect of the induced current.
The experimental data was analyzed by HEKA Patchmaster, Microsoft Excel and the data analysis software provided by Graphpad Prism.

CD-1 mice = experiment: PTZ-induced epilepsy model in mice; type: in vivo; conditions: 3 mpk p.o., PTZ 120 mg/kg s.c., 30 min observation
Protocol: The PTZ-induced epilepsy model in CD-1 mice was established, and the antiepileptic effect of the compounds of Example 2, Example 40, Example 41 and Example 52 was evaluated using this model.
50 male CD-1 mice were purchased from Beijing Vital River Laboratory Animal Technology Co. Ltd. The test animals were adapted at the animal room in the third building of Shanghai ChemPartner Co., Ltd for 7 days before the experiment. The average body weight of the animals on the test day was 32.2±0.2 grams. Feeding environment: 5 animals/cage, room temperature 23±2° C., 12/12 hours of light and dark cycle, free access to food and water.
The mice were randomly grouped for the experiment on the test day.
Compounds of Example 2, Example 40, Example 41 and Example 52 (prepared by the applicant). The test compounds were stored in a refrigerator at 4° C.
4.2.3 Test Equipments • 1 ml sterile disposable syringe with needle (purchased from Zhejiang Kangdelai Medical Devices Co., Ltd.) • Pipette: Eppendorf Research Plus (100-1000 μL) • Vortex mixer: Kylin-Bell Vortex 5 • Ultrasonic instrument: JL-360 ultrasonic cleaner • Balance: METTLER TOLEDO XS204 precision balance • Balance: METTLER TOLEDO XS6002S electronic balance • Plexiglass box: 25 cm length*15 cm width*15 cm height with one opaque side wall, custom made by Suzhou Fengshi Laboratory Animal Equipment Co., Ltd • 3-channel timer: Oregon/Model NO. WB-388. 4.2.4 Test Animal Grouping • 1) Vehicle/PTZ: 0.5% CMC-Na+1% Tween-80 (10 ml/kg, p.o.), administered 0.5 hr before the PTZ administration; PTZ ([…], s.c.), administered before the experiment; • 2) 3 mg/kg of the compounds of Examples/PTZ: the compounds of Example 2, Example 40, Example 41 and Example 52 (3 mg/kg, 10 ml/kg, p.o.), administered 0.5 hr before the PTZ administration; PTZ ([…], s.c.), administered before the experiment. 4.3 Experimental Procedures 4.3.1 Solvent Formulation • 1) 0.5% CMC-Na+1% Tween-80 (administration volume: 10 mL/kg):
1 g of sodium carboxymethyl cellulose was precisely weighed and added to a 250 mL solvent bottle, then 150 mL of double-distilled water was added. The mixture was stirred at room temperature for 4 hours with a magnetic stirrer to obtain a uniform and clear solution. 2 mL of Tween-80 was slowly added, and the mixture was stirred at room temperature for 3 hours to obtain a uniform and clear solution. The solution was slowly transferred to a 200 mL volumetric flask, and double distilled water was added to the constant volume of 200 mL. The solution was transferred to a 250 mL solvent bottle, and stirred for 1 hour with a magnetic stirrer to obtain a uniform and clear solution. • 2) 30% hydroxypropyl-p-cyclodextrin:
248 mg of PTZ was precisely weighed and added to a 40 mL brown flask, then 20.667 mL of physiological saline was added. The mixture was mixed by vortex for 2 minutes, and treated by ultrasound at room temperature for 2 minutes to obtain a uniform and clear solution (concentration: 12 mg/mL). • 2) 0.3 mg/mL of the compounds of Example 5 or Example 23 (dose: 3 mg/kg; administration volume: 10 mL/kg): […]
4.4 Adaptation to the Environment
The mice were randomly grouped, marked and weighed; 10 mice per group. The test compound was administered orally at an administration volume of 10 mL/kg 30-60 minutes before the PTZ administration.
PTZ (120 mg/kg) was administrated subcutaneously before the experiment observation, and this time point was recorded as the observation start point; after the administration of PTZ, the animal was immediately placed in the observation box and observed for 30 minutes, and the followings were recorded: a) the incubation period of the first clonic seizure, b) the incubation period of the first generalized tonic seizure, c) the number of clonic seizures, d) the number of generalized tonic seizures, e) the time when the animal died.
All measurement data were expressed as Mean±SEM, and analysed with Prism 6.0 statistical software.

T1 sequence (P14867 28-456): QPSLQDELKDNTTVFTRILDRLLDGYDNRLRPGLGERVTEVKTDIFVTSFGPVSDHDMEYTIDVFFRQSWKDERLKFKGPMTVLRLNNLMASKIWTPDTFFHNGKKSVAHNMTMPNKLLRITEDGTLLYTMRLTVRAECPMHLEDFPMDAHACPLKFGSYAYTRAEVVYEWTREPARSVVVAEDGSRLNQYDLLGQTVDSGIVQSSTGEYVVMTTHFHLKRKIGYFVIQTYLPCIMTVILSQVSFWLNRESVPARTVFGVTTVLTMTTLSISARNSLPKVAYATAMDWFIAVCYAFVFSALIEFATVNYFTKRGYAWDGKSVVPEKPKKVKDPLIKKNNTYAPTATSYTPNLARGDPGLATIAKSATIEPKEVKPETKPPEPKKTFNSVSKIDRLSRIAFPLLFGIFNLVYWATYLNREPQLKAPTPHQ
T1 sequence (P47870 25-512 limits assumed): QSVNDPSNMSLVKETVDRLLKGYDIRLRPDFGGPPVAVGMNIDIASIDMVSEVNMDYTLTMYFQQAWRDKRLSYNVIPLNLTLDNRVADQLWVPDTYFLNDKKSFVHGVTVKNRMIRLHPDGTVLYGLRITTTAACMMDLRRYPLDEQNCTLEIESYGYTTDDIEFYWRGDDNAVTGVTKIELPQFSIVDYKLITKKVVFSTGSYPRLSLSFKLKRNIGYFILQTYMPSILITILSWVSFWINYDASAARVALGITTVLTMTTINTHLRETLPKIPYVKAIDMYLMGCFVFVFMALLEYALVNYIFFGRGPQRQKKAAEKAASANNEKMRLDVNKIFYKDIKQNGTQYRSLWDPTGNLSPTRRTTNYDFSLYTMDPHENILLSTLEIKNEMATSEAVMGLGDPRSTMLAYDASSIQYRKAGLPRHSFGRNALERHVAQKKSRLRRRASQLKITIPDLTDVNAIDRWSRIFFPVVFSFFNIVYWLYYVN
T1 sequence (P18507 40-475 partner): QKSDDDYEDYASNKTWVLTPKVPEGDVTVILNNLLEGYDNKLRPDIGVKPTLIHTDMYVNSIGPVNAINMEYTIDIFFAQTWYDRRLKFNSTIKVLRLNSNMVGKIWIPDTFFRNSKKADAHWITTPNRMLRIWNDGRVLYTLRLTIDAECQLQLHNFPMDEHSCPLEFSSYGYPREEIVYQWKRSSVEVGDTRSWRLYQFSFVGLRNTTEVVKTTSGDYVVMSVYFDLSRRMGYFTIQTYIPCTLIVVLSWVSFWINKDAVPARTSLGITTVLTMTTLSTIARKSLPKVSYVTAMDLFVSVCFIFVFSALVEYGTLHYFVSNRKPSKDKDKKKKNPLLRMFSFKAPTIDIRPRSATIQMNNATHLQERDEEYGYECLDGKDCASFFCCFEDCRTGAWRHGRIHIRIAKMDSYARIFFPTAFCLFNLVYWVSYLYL

**Q.** Which results are given for `C[C@@H]1C[C@H](C(=O)Cn2cc(C#N)cn2)[C@@]2(C)CC[C@H]3[C@@H](CC[C@@H]4C[C@](C)(O)CC[C@@H]43)[C@H]12` [Example 9, 1-(2-((3R,5R,8R,9R,10S,13S,14S,15R)-3-Hydroxy-3,13,15-trimethylhexadecahydro-1H-cyclopenta[a]phenanthren-17-yl)-2-oxoethyl)-1H-pyrazole-4-carbonitrile]?
**A.** IC50 (GABA-A receptor): 4.6 nM; Mean (immobility, %) (ICR mice; dose 5 mpk p.o.): 57.60%; Mean (immobility, s) (ICR mice; dose 5 mpk p.o.): 138.22 s; EC50 [1]: 60 nM

**Q.** Which results are given for `C[C@@H]1C[C@H](C(=O)Cn2nccn2)[C@@]2(C)CC[C@H]3[C@@H](CC[C@@H]4C[C@](C)(O)CC[C@@H]43)[C@H]12` [Example 41, 1-((3R,5R,8R,9R,10S,13S,14S,15R,17S)-3-Hydroxy-3,13,15-trimethylhexadecahydro-1H-cyclopenta[a]phenanthren-17-yl)-2-(2H-1,2,3-triazol-2-yl)ethan-1-one]?
**A.** Mean (immobility, %) (ICR mice; dose 10 mpk p.o.): 35.75%; Mean (immobility, s) (ICR mice; dose 10 mpk p.o.): 85.8 s; immobility time during the latter four minutes compared with that of the model group (ICR mice; forced swimming, ICR mice): very significantly different; EC50 [1]: 130 nM; Incubation period of the clonic seizure (sec) Mean ± SEM (CD-1 mice): 841.4 ± 179.8 s; Incubation period of the generalized tonic seizure (sec) Mean (CD-1 mice): 1497.4 ± 124.3 s; Mortality rate (%) (CD-1 mice): 40%; Number of clonic seizures Mean (CD-1 mice): 1.9 ± 0.4; Number of generalized tonic seizures Mean (CD-1 mice): 0.5 ± 0.2; Time when the animal died (sec) Mean (CD-1 mice): 1573.1 ± 117.9 s

**Q.** Which results are given for `Cc1nnn(CC(=O)[C@H]2C[C@@H](C3CC3)[C@H]3[C@@H]4CC[C@@H]5C[C@](C)(O)CC[C@@H]5[C@H]4CC[C@@]32C)n1` [Example 52, 1-((3R,5R,8R,9R,10S,13S,14S,15S,17S)-15-Cyclopropyl-3-hydroxy-3,13-dimethylhexadecahydro-1H-cyclopenta[a]phenanthren-17-yl)-2-(5-methyl-2H-tetrazol-2-yl)ethan-1-one]?
**A.** Mean (immobility, %) (ICR mice; dose 5 mpk p.o.): 38.00%; Mean (immobility, s) (ICR mice; dose 5 mpk p.o.): 91.21 s; EC50 [1]: 150 nM; Incubation period of the clonic seizure (sec) Mean ± SEM (CD-1 mice): 635.4 ± 149.9 s; Incubation period of the generalized tonic seizure (sec) Mean (CD-1 mice): 1506.8 ± 149.8 s; Mortality rate (%) (CD-1 mice): 30%; Number of clonic seizures Mean (CD-1 mice): 1.8 ± 0.3; Number of generalized tonic seizures Mean (CD-1 mice): 0.3 ± 0.2; Time when the animal died (sec) Mean (CD-1 mice): 1618.1 ± 121.3 s

**Q.** Which IC50 (GABA-A receptor) does the source give for `C[C@@H]1C[C@H](C(=O)Cn2cc(C#N)c(Cl)n2)[C@@]2(C)CC[C@H]3[C@@H](CC[C@@H]4C[C@](C)(O)CC[C@@H]43)[C@H]12` [Example 88, 3-Chloro-1-(2-((3R,5R,8R,9R,10S,13S,14S,15R,17S)-3-hydroxy-3,13,15-trimethylhexadecahydro-1H-cyclopenta[a]phenanthren-17-yl)-2-oxoethyl)-1H-pyrazole-4-carbonitrile] here?
**A.** 6.7 nM

**Q.** What about the EC50 [1] of the same compound?
**A.** 49 nM

**Q.** With `C[C@@H]1C[C@H](C(=O)Cn2nc(C#N)cc2C#N)[C@@]2(C)CC[C@H]3[C@@H](CC[C@@H]4C[C@](C)(O)CC[C@@H]43)[C@H]12` [Example 89, 1-(2-((3R,5R,8R,9R,10S,13S,14S,15R,17S)-3-Hydroxy-3,13,15-trimethylhexadecahydro-1H-cyclopenta[a]phenanthren-17-yl)-2-oxoethyl)-1H-pyrazole-3,5-dicarbonitrile] as the compound, how does the IC50 (GABA-A receptor) read?
**A.** 4.3 nM

**Q.** And the EC50 [1]?
**A.** 43 nM

**Q.** How did the IC50 (GABA-A receptor) turn out when `C[C@@]1(O)CC[C@H]2[C@H](CC[C@@H]3[C@@H]2CC[C@@]2(C)[C@H]3[C@H](C3CC3)C[C@@H]2C(=O)Cn2nc(C#N)cc2C#N)C1` [Example 96, 1-(2-((3R,5R,8R,9R,10S,13S,14S,15S,17S)-15-Cyclopropyl-3-hydroxy-3,13-dimethylhexadecahydro-1H-cyclopenta[a]phenanthren-17-yl)-2-oxoethyl)-1H-pyrazole-3,5-dicarbonitrile] was run?
**A.** 28.5 nM

**Q.** What about the EC50 [1] of the same compound?
**A.** 84 nM
